Each structure is given as a SMILES string.

What all share (test): KINOMEscan kinase binding assay (Eurofins/DiscoveRx), % Ctrl
The target of experiment [1] is T1, kinases (Homo sapiens, UniProt P00519, F317L).
T1 construct: purchased Eurofins/DiscoveRx; host or cells: E. coli BL21-derived host (T7 phage display) for most kinases; HEK-293 for the rest
The method in brief:
(§1)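 Competition binding: DNA- or phage-tagged kinases (T7 phage in E. coli BL21, or HEK-293-expressed) with immobilized biotinylated ligand beads and test compound, 1 h at room temperature. Bead-bound kinase eluted and quantified by qPCR; % Ctrl = (compound − positive control)/(negative control − positive control) ×100 at a single compound concentration.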

Experiment [2] has as its target T2, kinases (Homo sapiens, UniProt P09619).
T2 construct: purchased Eurofins/DiscoveRx; host or cells: E. coli BL21-derived host (T7 phage display) for most kinases; HEK-293 for the rest
The method in brief:
as §1

Experiment [3] concerns the target T3, kinases (Homo sapiens, UniProt P10721).
T3 construct: purchased Eurofins/DiscoveRx; host or cells: E. coli BL21-derived host (T7 phage display) for most kinases; HEK-293 for the rest
The method in brief:
as §1

For experiment [4], the target named is T4, kinases (Homo sapiens, UniProt P10721, V559D/V654A).
T4 construct: purchased Eurofins/DiscoveRx; host or cells: E. coli BL21-derived host (T7 phage display) for most kinases; HEK-293 for the rest
In short, it runs like this: as §1

The target in experiment [5] is T5, kinases (Homo sapiens, UniProt P36888, D835V).
T5 construct: purchased Eurofins/DiscoveRx; host or cells: E. coli BL21-derived host (T7 phage display) for most kinases; HEK-293 for the rest
T5 sequence (P36888 27-993 D835V): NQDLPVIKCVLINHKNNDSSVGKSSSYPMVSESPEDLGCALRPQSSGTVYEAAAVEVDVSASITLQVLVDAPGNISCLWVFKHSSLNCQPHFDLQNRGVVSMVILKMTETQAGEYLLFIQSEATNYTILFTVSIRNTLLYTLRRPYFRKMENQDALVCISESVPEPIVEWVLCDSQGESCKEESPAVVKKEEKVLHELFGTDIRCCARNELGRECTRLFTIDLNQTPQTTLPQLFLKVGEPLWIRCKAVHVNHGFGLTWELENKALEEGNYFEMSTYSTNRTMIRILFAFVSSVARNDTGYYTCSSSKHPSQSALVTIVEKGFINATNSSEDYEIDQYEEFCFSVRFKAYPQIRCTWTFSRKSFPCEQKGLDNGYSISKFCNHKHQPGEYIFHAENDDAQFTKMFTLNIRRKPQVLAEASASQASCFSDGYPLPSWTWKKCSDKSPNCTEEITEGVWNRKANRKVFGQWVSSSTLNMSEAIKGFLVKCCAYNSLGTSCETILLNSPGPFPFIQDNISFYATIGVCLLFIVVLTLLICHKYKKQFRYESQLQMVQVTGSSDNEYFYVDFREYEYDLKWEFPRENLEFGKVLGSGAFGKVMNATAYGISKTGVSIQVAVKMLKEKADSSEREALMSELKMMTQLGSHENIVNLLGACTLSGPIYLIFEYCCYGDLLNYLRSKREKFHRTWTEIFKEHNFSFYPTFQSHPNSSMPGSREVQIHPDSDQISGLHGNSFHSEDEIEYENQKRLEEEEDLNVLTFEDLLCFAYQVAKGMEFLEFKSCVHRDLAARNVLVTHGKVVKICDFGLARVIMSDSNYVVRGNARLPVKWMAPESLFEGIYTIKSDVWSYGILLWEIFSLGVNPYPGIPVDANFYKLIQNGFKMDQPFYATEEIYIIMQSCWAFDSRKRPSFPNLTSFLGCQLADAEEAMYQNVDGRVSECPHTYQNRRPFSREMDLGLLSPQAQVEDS
The method in brief:
as §1

[6] abbreviates: target ABL1(F317L)-nonphosphorylated; 1 μM.
The mark [7] stands for this setting: target ABL1(F317L)-phosphorylated; 1 μM.
[8] abbreviates: 1 μM; target ABL1(F317L)-nonphosphorylated.
[9] abbreviates: 1 μM; target ABL1(F317L)-phosphorylated.

T2 sequence (P09619 33-1106): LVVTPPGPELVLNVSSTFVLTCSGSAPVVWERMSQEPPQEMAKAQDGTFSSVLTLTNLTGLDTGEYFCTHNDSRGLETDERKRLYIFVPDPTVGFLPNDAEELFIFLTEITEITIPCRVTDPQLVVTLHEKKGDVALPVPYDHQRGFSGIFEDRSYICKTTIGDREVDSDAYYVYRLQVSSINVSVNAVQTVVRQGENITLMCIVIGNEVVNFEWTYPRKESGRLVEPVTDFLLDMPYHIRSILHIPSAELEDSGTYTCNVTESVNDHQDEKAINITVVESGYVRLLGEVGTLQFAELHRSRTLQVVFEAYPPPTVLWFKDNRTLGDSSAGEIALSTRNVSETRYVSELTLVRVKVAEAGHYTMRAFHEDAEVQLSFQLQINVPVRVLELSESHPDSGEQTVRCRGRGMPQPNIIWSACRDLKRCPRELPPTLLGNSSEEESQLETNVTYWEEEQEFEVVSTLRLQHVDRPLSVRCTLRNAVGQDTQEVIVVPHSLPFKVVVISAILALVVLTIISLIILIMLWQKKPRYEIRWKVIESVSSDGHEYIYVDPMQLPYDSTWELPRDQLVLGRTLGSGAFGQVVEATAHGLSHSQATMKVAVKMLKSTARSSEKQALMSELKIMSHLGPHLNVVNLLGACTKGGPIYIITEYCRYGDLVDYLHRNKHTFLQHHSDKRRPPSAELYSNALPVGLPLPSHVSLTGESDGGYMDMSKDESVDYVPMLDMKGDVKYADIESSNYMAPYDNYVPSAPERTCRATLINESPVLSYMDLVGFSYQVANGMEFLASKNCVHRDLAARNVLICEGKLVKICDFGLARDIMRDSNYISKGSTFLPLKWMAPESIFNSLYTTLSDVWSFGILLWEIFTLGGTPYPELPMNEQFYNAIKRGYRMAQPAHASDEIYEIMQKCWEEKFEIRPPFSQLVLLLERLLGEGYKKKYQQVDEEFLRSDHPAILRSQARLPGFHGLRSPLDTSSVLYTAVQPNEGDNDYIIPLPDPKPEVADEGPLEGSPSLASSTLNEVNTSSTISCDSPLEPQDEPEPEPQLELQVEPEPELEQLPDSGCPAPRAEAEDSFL
T3 sequence (P10721 26-976): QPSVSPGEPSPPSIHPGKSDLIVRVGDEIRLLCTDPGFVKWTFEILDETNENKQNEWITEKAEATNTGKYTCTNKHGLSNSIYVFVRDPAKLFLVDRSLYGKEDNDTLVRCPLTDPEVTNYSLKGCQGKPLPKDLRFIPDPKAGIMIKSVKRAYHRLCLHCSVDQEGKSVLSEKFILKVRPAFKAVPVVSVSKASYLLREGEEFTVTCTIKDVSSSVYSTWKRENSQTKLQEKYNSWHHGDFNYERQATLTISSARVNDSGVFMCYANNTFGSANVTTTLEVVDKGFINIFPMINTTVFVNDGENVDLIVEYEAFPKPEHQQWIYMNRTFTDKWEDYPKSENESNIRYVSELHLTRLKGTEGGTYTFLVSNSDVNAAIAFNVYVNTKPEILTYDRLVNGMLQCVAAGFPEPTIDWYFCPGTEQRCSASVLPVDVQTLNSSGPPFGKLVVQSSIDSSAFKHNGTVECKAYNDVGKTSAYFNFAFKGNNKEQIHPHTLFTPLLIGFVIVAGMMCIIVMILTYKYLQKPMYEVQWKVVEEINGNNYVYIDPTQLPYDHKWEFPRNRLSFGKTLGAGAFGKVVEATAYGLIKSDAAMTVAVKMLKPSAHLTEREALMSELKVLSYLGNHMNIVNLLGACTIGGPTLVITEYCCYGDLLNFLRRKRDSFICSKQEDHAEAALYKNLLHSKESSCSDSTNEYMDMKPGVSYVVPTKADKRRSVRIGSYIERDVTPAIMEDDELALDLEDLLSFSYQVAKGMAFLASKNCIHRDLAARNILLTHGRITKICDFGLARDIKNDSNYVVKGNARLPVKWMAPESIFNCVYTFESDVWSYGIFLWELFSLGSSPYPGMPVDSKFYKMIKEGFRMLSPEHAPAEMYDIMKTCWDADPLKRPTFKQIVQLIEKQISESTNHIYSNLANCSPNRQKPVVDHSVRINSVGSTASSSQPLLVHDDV
T1 sequence (P00519 whole entry F317L): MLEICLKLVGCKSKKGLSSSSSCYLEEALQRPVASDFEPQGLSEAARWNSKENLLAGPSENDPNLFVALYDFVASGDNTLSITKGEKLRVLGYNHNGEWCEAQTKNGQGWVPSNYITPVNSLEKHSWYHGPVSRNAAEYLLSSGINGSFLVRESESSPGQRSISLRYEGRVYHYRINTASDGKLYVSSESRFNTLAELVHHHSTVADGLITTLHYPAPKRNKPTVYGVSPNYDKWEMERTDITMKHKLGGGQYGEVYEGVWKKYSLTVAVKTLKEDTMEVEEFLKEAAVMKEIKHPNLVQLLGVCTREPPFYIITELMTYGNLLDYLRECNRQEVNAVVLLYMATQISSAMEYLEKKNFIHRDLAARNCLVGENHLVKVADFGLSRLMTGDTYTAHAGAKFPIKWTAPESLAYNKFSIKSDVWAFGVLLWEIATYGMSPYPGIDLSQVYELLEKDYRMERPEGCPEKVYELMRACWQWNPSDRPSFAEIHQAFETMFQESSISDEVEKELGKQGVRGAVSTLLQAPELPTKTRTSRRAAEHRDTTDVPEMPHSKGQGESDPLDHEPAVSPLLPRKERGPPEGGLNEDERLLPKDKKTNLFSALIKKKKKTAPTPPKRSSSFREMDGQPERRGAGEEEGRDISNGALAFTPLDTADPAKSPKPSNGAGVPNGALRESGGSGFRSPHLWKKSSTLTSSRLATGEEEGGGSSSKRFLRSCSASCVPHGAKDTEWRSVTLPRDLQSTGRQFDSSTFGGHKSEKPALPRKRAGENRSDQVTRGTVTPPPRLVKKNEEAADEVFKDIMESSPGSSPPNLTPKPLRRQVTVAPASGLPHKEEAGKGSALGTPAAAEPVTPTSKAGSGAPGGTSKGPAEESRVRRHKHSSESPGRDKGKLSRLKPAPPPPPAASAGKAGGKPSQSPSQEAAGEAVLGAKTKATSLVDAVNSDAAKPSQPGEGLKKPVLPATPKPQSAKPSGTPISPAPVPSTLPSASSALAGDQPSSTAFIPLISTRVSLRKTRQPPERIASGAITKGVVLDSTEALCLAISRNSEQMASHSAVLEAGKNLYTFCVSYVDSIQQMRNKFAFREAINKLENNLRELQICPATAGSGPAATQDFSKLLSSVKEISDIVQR
T4 sequence (P10721 26-976 V559D/V654A): as the sequence (P10721 26-976) above, with V534D, V629A counted along it

For the molecule `Cc1cc2c([nH]1)/C=C1\C(=O)Nc3ccc(cc31)-c1c(C)nn(C)c1COCCN(C)C2=O` [Ex. 146, [3a(4)Z]-6,9,14,16-tetramethyl-10,11,13,14-tetrahydro-2H-1,17-(ethanediylidene)pyrazolo[4,3-m]dipyrrolo[3,2-f:3′,4′-i][1,4]oxazacyclopentadecine-3,8(5H,9H)-dione], the “% Ctrl, ABL1(F317L)-nonphosphorylated” value in experiment [1] (setting [6]) is given as 89 % Ctrl. Besides, the “% Ctrl, ABL1(F317L)-phosphorylated” value in experiment [1] (setting [7]) is listed as 89 % Ctrl. Moreover, the “% Ctrl, PDGFRB” value in experiment [2] (target PDGFRB; 1 μM) was 96 % Ctrl. Besides, the “% Ctrl, KIT-autoinhibited” value in experiment [3] (target KIT-autoinhibited; 1 μM) was found to be 80 % Ctrl. For the same molecule, the “% Ctrl, KIT” value in experiment [3] (target KIT; 1 μM) stood at 96 % Ctrl. In experiment [4] (target KIT(V559D, V654A); 1 μM), the “% Ctrl, KIT(V559D, V654A)” value is listed as 97 % Ctrl. Also, the “% Ctrl, FLT3(D835V)” value in experiment [5] (target FLT3(D835V); 1 μM) came out at 0.2 % Ctrl.
`Cc1nn(C)c2c1-c1ccc3c(c1)/C(=C/c1[nH]ccc1C(=O)N(C)CCCO2)C(=O)N3` [Ex. 150, [3a(4)Z]-9,14,16-trimethyl-10,11,13,14-tetrahydro-2H-1,17-(ethanediylidene)pyrazolo[4,3-m]dipyrrolo[3,2-f:3′,4′-i][1,4]oxazacyclopentadecine-3,8(5H,9H)-dione]: the “% Ctrl, ABL1(F317L)-nonphosphorylated” value in experiment [1] (setting [6]) is on record as 87 % Ctrl. Further, the “% Ctrl, ABL1(F317L)-phosphorylated” value in experiment [1] (setting [7]) amounted to 82 % Ctrl. Also, in experiment [2] (target PDGFRB; 1 μM), the “% Ctrl, PDGFRB” value is on record as 96 % Ctrl. Moreover, the “% Ctrl, KIT-autoinhibited” value in experiment [3] (target KIT-autoinhibited; 1 μM) amounted to 100 % Ctrl. Besides, in experiment [3] (target KIT; 1 μM), the “% Ctrl, KIT” value is recorded as 97 % Ctrl. In addition, the “% Ctrl, KIT(V559D, V654A)” value in experiment [4] (target KIT(V559D, V654A); 1 μM) was determined as 100 % Ctrl. In experiment [5] (target FLT3(D835V); 1 μM), the “% Ctrl, FLT3(D835V)” value was 13 % Ctrl.
On to `CN1CCSCCOc2cc3c(cc2Cl)NC(=O)/C3=C\c2[nH]ccc2C1=O` [Ex. 153], for which the “% Ctrl, ABL1(F317L)-nonphosphorylated” value in experiment [1] (setting [6]) is 4.3 % Ctrl. Further, in experiment [1] (setting [7]), the “% Ctrl, ABL1(F317L)-phosphorylated” value came out at 18 % Ctrl. In addition, in experiment [2] (target PDGFRB; 1 μM), the “% Ctrl, PDGFRB” value is 0.5 % Ctrl. For the same molecule, the “% Ctrl, KIT-autoinhibited” value in experiment [3] (target KIT-autoinhibited; 1 μM) is listed as 14 % Ctrl. Also, the “% Ctrl, KIT” value in experiment [3] (target KIT; 1 μM) is given as 0.8 % Ctrl. The “% Ctrl, KIT(V559D, V654A)” value in experiment [4] (target KIT(V559D, V654A); 1 μM) was found to be 13 % Ctrl. The “% Ctrl, FLT3(D835V)” value in experiment [5] (target FLT3(D835V); 1 μM) is 0.3 % Ctrl.
In the case of `Cc1cc2c([nH]1)/C=C1\C(=O)Nc3ccc(cc31)-c1c(noc1C(C)C)COCCN(C)C2=O` [Ex. 161, [3a(4)Z]-9-methyl-16-(propan-2-yl)-10,11-dihydro-2H,13H-1,17-(ethanediylidene)[1,2]oxazolo[4,3-m]dipyrrolo[3,2-f:3′,4′-i][1,4]oxazacyclopentadecine-3,8(5H,9H)-dione], the “% Ctrl, ABL1(F317L)-nonphosphorylated” value in experiment [1] (setting [8]) stood at 93 % Ctrl. Also, the “% Ctrl, ABL1(F317L)-phosphorylated” value in experiment [1] (setting [9]) amounted to 94 % Ctrl. In experiment [2] (1 μM; target PDGFRB), the “% Ctrl, PDGFRB” value is 98 % Ctrl. For the same molecule, the “% Ctrl, KIT” value in experiment [3] (1 μM; target KIT) is 98 % Ctrl. Also, in experiment [3] (1 μM; target KIT-autoinhibited), the “% Ctrl, KIT-autoinhibited” value turned out to be 100 % Ctrl. In addition, the “% Ctrl, KIT(V559D, V654A)” value in experiment [4] (1 μM; target KIT(V559D, V654A)) came to 87 % Ctrl. For the same molecule, the “% Ctrl, FLT3(D835V)” value in experiment [5] (1 μM; target FLT3(D835V)) was found to be 23 % Ctrl.
As for `CN1CCOc2cc3c(cc2Cl)NC(=O)/C3=C\c2[nH]ccc2C(=O)N(C)CC1` [Ex. 164, [16a(17)Z]-19-chloro-2,5,8-trimethyl-5,6,7,8,9,10-hexahydro-12,14-(ethanediylidene)dipyrrolo[3,2-i:3′,4′-l][1,4,7]oxadiazacyclopentadecine-4,16(1H,15H)-dione], the “% Ctrl, ABL1(F317L)-nonphosphorylated” value in experiment [1] (setting [8]) was found to be 1.6 % Ctrl. Further, the “% Ctrl, ABL1(F317L)-phosphorylated” value in experiment [1] (setting [9]) turned out to be 1.3 % Ctrl. Besides, the “% Ctrl, PDGFRB” value in experiment [2] (1 μM; target PDGFRB) is on record as 0.9 % Ctrl. In experiment [3] (1 μM; target KIT), the “% Ctrl, KIT” value was determined as 18 % Ctrl. Moreover, the “% Ctrl, KIT-autoinhibited” value in experiment [3] (1 μM; target KIT-autoinhibited) is given as 81 % Ctrl. The “% Ctrl, KIT(V559D, V654A)” value in experiment [4] (1 μM; target KIT(V559D, V654A)) amounted to 27 % Ctrl. Also, the “% Ctrl, FLT3(D835V)” value in experiment [5] (1 μM; target FLT3(D835V)) is recorded as 1.1 % Ctrl.
Turning to `Cc1cc2c([nH]1)/C=C1\C(=O)Nc3ccc(cc31)-c1cnn(C)c1OCCCN(C)C2=O` [Ex. 166, [3a(4)Z]-9,14-dimethyl-9,10,11,12-tetrahydro-14H-1,17-(ethanediylidene)pyrazolo[4,3-n]dipyrrolo[3,2-g:3′,4′-j][1,5]oxazacyclopentadecine-3,8(2H,5H)-dione], the “% Ctrl, ABL1(F317L)-nonphosphorylated” value in experiment [1] (setting [8]) is listed as 41 % Ctrl. Further, the “% Ctrl, ABL1(F317L)-phosphorylated” value in experiment [1] (setting [9]) is on record as 8.7 % Ctrl. For the same molecule, in experiment [2] (1 μM; target PDGFRB), the “% Ctrl, PDGFRB” value came to 16 % Ctrl. Further, in experiment [3] (1 μM; target KIT), the “% Ctrl, KIT” value turned out to be 100 % Ctrl. Further, the “% Ctrl, KIT-autoinhibited” value in experiment [3] (1 μM; target KIT-autoinhibited) was 87 % Ctrl. In experiment [4] (1 μM; target KIT(V559D, V654A)), the “% Ctrl, KIT(V559D, V654A)” value came out at 43 % Ctrl. Moreover, in experiment [5] (1 μM; target FLT3(D835V)), the “% Ctrl, FLT3(D835V)” value came to 1.8 % Ctrl.
Regarding `Cc1cc2c([nH]1)/C=C1\C(=O)Nc3cc(Cl)c(cc31)SCCOCCN(C)C2=O` [Ex. 169, [16a(17)Z]-19-chloro-5-methyl-6,7,9,10-tetrahydro-1H-12,14-(ethanediylidene)dipyrrolo[3,4-g:2′,3′-j][1,4,13]oxathiazacyclopentadecine-4,16(5H,15H)-dione], in experiment [1] (setting [8]), the “% Ctrl, ABL1(F317L)-nonphosphorylated” value was 0.6 % Ctrl. In addition, in experiment [1] (setting [9]), the “% Ctrl, ABL1(F317L)-phosphorylated” value was determined as 0.1 % Ctrl. In addition, the “% Ctrl, PDGFRB” value in experiment [2] (1 μM; target PDGFRB) is reported as 0.9 % Ctrl. Further, the “% Ctrl, KIT” value in experiment [3] (1 μM; target KIT) amounted to 7.5 % Ctrl. In addition, the “% Ctrl, KIT-autoinhibited” value in experiment [3] (1 μM; target KIT-autoinhibited) came out at 25 % Ctrl. Also, in experiment [4] (1 μM; target KIT(V559D, V654A)), the “% Ctrl, KIT(V559D, V654A)” value is on record as 13 % Ctrl. Further, the “% Ctrl, FLT3(D835V)” value in experiment [5] (1 μM; target FLT3(D835V)) stood at 0 % Ctrl.
Turning to `Cc1cc2c([nH]1)/C=C1\C(=O)Nc3cnc(cc31)-c1cnn(C)c1CN(C)CCN(C)C2=O` [Ex. 172, [3a(4)Z]-6,9,12,14-tetramethyl-9,10,11,12,13,14-hexahydro-17,1-(azenometheno)pyrazolo[4,3-m]dipyrrolo[3,2-f:3′,4′-i][1,4]diazacyclopentadecine-3,8(2H,5H)-dione], the “% Ctrl, ABL1(F317L)-nonphosphorylated” value in experiment [1] (setting [8]) stood at 7.1 % Ctrl. In addition, the “% Ctrl, ABL1(F317L)-phosphorylated” value in experiment [1] (setting [9]) came out at 1.9 % Ctrl. For the same molecule, in experiment [2] (1 μM; target PDGFRB), the “% Ctrl, PDGFRB” value was found to be 1.9 % Ctrl. Further, the “% Ctrl, KIT” value in experiment [3] (1 μM; target KIT) is recorded as 68 % Ctrl. Moreover, the “% Ctrl, KIT-autoinhibited” value in experiment [3] (1 μM; target KIT-autoinhibited) came out at 100 % Ctrl. Besides, the “% Ctrl, KIT(V559D, V654A)” value in experiment [4] (1 μM; target KIT(V559D, V654A)) came to 40 % Ctrl. The “% Ctrl, FLT3(D835V)” value in experiment [5] (1 μM; target FLT3(D835V)) is 0.5 % Ctrl.

Values taken from US20230257396A1, “MACROCYCLES AND THEIR USE” (BLOSSOMHILL THERAPEUTICS, INC., priority 2020, published 2023).
